Data reported in patent US10123994B2, “Heterocyclic derivative having AMPK-activating activity” (SHIONOGI & CO., LTD., priority 2014, dated 2018).

Biological target: T1, Human AMPK α2β2γ1 (Homo sapiens, UniProt O43741+P54619+P54646)
T1 construct: The full length cDNAs of human AMPK β2 (NM_005399.3) and human AMPK α2 (NM_006252.3); The full length cDNAs of human AMPK β2 (NM_005399.3); the full length cDNA of human AMPK γ1 (NM_002733.3); 6xHis (N); made in house; host or cells: Escherichia coli BL21 CodonPlus (DE3)-RIL (AMPK); BL21 Star (DE3) (CaMKK2)
T1 sequence (P54646 whole entry): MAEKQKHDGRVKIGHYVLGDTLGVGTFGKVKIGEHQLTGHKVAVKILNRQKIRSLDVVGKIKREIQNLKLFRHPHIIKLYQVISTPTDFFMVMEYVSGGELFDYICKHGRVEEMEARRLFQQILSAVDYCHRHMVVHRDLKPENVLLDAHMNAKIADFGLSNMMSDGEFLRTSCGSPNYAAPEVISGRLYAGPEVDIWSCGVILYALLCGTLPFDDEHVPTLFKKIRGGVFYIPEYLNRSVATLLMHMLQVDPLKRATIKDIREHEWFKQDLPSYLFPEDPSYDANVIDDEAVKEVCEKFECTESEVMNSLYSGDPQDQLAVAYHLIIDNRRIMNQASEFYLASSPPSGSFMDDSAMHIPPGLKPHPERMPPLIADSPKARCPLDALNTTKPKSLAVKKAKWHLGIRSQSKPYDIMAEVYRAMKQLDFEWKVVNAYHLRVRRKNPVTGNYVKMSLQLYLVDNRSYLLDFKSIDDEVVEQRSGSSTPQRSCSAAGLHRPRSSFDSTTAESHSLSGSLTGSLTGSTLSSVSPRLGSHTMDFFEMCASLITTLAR
T1 sequence (O43741 whole entry): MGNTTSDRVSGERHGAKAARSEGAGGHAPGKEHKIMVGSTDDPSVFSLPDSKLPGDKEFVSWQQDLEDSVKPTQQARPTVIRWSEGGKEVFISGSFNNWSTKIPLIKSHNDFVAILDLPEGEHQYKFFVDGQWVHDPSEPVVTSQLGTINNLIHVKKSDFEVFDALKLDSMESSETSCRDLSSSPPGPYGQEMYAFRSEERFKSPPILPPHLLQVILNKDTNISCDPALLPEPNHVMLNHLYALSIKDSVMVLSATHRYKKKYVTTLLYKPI
T1 sequence (P54619 whole entry): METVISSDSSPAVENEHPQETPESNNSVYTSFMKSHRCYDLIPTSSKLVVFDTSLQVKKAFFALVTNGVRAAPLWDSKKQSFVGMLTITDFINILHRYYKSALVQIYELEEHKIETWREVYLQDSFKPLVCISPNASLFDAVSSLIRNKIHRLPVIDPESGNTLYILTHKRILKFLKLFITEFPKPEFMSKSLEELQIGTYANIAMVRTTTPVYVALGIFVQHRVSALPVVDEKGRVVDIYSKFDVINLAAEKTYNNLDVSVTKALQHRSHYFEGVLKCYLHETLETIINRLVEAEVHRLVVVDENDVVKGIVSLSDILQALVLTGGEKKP
Assay: Test Example 2: AMPK activator evaluation, mobility-shift kinase assay after CaMKK2 phosphorylation
Assay type: biochemical
Settings: for EC150: compound concentration showing 150% relative to the control (100%); for Emax: maximum rate of increase in activity within the measurement range, control = 100%
Procedure: The full length cDNAs of human AMPK β2 (NM_005399.3) and human AMPK α2 (NM_006252.3) were inserted into the MCS1 and MCS2 of the pETDuet-1 vector to prepare a human AMPK β2 and human AMPK α2 (6× His tag at the 5′ terminus) expressing plasmid. The plasmid was cotransfected with an expression plasmid, in which the full length cDNA of human AMPK γ1 (NM_002733.3) had been inserted into pET28b(+), into BL21 CodonPlus (DE3)-RIL to obtain an expression strain. The expression strain was cultured in TB medium, followed by induction with 0.5 mM IPTG, and cultured at 25° C. for 3 hours and then harvested. After ultrasonication, supernatant was collected and applied to Histrap FF column (GE) and RESOUECE Q column (GE) to prepare 12.5 mg of purified sample containing three types of subunit from 1.8 L of broth.
An expression vector, in which the full length cDNA of human CAMKK β (NM_172226.1) had been inserted into pGEX-6P-3, was transfected into BL21 Star (DE3). The expression strain was cultured in TB medium, followed by induction with 0.5 mM IPTG, and cultured at 25° C. for 3 hours and then harvested. After ultrasonication, supernatant was collected and applied to GSTrap FF column (GE) to prepare 14 mg of GST-fused CAMKK β from 720 ml of broth.
Thus, phosphorylation treatment was carried out as pretreatment.
Human AMPK α2β2γ1 in an amount to give a conversion rate of approximately 10% by reaction for 2 hours, and CaMKK2 in an amount capable of sufficiently imparting activity to AMPK for one hour were mixed in a buffer solution consisting of a 50 mM HEPES-NaOH buffer solution (pH 7.0), 100 mM NaCl, 5 mM magnesium chloride, 0.1% bovine serum albumin, 0.2 mM sodium orthovanadate(V), 1 mM ethylene glycol-bis(2-aminoethyl ether)-N,N,N′,N′-tetraacetic acid (EGTA), 5 mM disodium β-glycerophosphate, 1 mM dithiothreitol and 0.2 mM ATP, and the obtained liquid was left to stand at 25° C. for 1 to 1.5 hours to sufficiently phosphorylate AMPK.
After that, to the enzyme liquid, which had been subjected to phosphorylation treatment, a compound dissolved in DMSO was added so as to have a 1% DMSO concentration. The obtained liquid was left to stand for 10 minutes.
To the liquid, a substrate solution consisting of a 50 mM HEPES-NaOH buffer solution (pH 7.0), 100 mM NaCl, 10 mM magnesium chloride, 0.1% bovine serum albumin, 0.2 mM sodium orthovanadate(V), 1 mM ethylene glycol-bis(2-aminoethyl ether)-N,N,N′,N′-tetraacetic acid (EGTA), 5 mM disodium β-glycerophosphate, 2 mM dithiothreitol, 0.4 mM ATP and 3 μM FL-Peptide 7 (manufactured by Caliper Life Sciences, Inc.) was added in equal amount (10 μl in total). The obtained liquid was allowed to react at 25° C. for 2 hours, and 10 μl of 20 mM EDTA was then added thereto to stop the reaction.
To detect phosphorylated fluorescent substrates, the reaction liquid was applied to a measuring device, LabChip EZ Reader II manufactured by Caliper Life Science, Inc., for detecting fluorescence by using differences in mobility due to differences in charge. The setting conditions for the device were pressure, −1.5 PSI; upstream voltage, −2250 V; downstream voltage, −400 V; post sample buffer sip time, 40 seconds; final delay, 120 seconds; and peak order, Product First.
A conversion rate was calculated from the peak heights of the resulting substrate and product. The conversion rate when not containing a compound was used as a control, and a concentration dependent curve was made by plotting the rate of increase in activity to the control at each concentration of a compound.

Row | SMILES | EC150 [nM] | Emax [%]
1 | CN(C)CCCc1cc(F)c(CNc2nc3nc(O[C@@H]4CO[C@H]5[C@@H]4OC[C@H]5O)[nH]c3cc2Cl)c(F)c1 [Compound I-2-222] | 16 | 532
2 | COCCOc1cc(F)c(CNc2nc3nc(O[C@@H]4CO[C@H]5[C@@H]4OC[C@H]5O)[nH]c3cc2Cl)c(F)c1 [Compound I-1-13] | 17 | 838
3 | O[C@@H]1CO[C@H]2[C@@H]1OC[C@H]2Oc1nc2nc(NCc3c(F)cc(OCC4CNCCO4)cc3F)c(Cl)cc2[nH]1 (stereo partly drawn) [Compound I-2-119] | 13 | 581
4 | Cn1cc(-c2cc(F)c3c(c2)CCC3Nc2nc3nc(O[C@@H]4CO[C@H]5[C@@H]4OC[C@H]5O)[nH]c3cc2Cl)cn1 (stereo partly drawn) [Compound I-2-239] | 5.6 | 535
5 | O[C@@H]1CO[C@H]2[C@@H]1OC[C@H]2Oc1nc2nc(/C=C/c3ccc(F)cc3F)c(Cl)cc2[nH]1 [Compound I-2-244] | 92 | 517
6 | O=C(Nc1nc2nc(O[C@@H]3CO[C@H]4[C@@H]3OC[C@H]4O)[nH]c2cc1Cl)c1ccc2ccccc2c1 [Compound I-1-80] | 880 | 397
